Test results: patent US20230024283A1, “HERBICIDAL COMPOUNDS” (SYNGENTA CROP PROTECTION AG, priority 2020, published 2023)

Assays:
Test in all cases: Post-emergence herbicidal glasshouse test
Assay type in all cases: in vivo
Details in all cases: post-emergence spray, 1000 g/ha, evaluated after 13 days, five-point scale
[1] = tested on: Ipomoea hederacea (IPOHE)
Procedure: (§1) Seeds of a variety of test species are sown in standard soil in pots (Ipomoea hederacea (IPOHE), Abutilon theophrasti (ABUTH), Amaranthus retoflexus (AMARE), Echinochloa crus-galli (ECHCG), Setaria faberi (SETFA)). After 8 days cultivation under controlled conditions in a glasshouse (at 24/16° C., day/night; 14 hours light; 65% humidity), the plants are sprayed with an aqueous spray solution derived from the formulation of the technical active ingredient in acetone / water (50:50) solution containing 0.5% Tween 20 (polyoxyethelyene sorbitan monolaurate, CAS RN 9005-64-5). Compounds are applied at 1000 g/ha unless otherwise stated. The test plants are then grown in a glasshouse under controlled conditions in a glasshouse (at 24/16° C., day/night; 14 hours light; 65% humidity) and watered twice daily. After 13 days the test is evaluated for the percentage damage caused to the plant. The biological activities are shown in the following table on a five-point scale (5=81-100%; 4=61-80%; 3=41-60%; 2=21-40%; 1=0-20%).

[2] = tested on: Abutilon theophrasti (ABUTH)
Procedure: as §1

[3] = tested on: Amaranthus retoflexus (AMARE)
Procedure: as §1

[4] = tested on: Setaria faberi (SETFA)
Procedure: as §1

[5] = tested on: Echinochloa crus-galli (ECHCG)
Procedure: as §1

Row | SMILES | percentage damage caused to the plant, IPOHE [1] | percentage damage caused to the plant, ABUTH [2] | percentage damage caused to the plant, AMARE [3] | percentage damage caused to the plant, SETFA [4] | percentage damage caused to the plant, ECHCG [5]
1 | N#Cc1cc(Cl)c(O)c(-n2cc(C(F)(F)F)cn2)c1 [Compound 1.001, 3-chloro-4-hydroxy-5-[4-(trifluoromethyl)pyrazol-1-yl]benzonitrile] | 1 (1=0-20%) | 5 (5=81-100%) | 4 (4=61-80%) | 4 (4=61-80%) | 
2 | N#Cc1cc(OC(F)(F)F)c(O)c(-c2cccc(F)c2)c1 [Compound 1.002] | 5 (5=81-100%) | 4 (4=61-80%) | 5 (5=81-100%) | 2 (2=21-40%) | 3 (3=41-60%)
3 | N#Cc1cc(Cl)c(O)c(-c2cccc(F)c2)c1 [Compound 1.004] | 1 (1=0-20%) | 5 (5=81-100%) | 5 (5=81-100%) | 3 (3=41-60%) | 3 (3=41-60%)
4 | N#Cc1cc(-c2cccc(F)c2)c(O)c(C(F)(F)F)c1 [Compound 1.005] | 5 (5=81-100%) | 5 (5=81-100%) | 4 (4=61-80%) | 1 (1=0-20%) | 4 (4=61-80%)
5 | Cn1nc(-c2cc(C#N)cc(Br)c2O)cc1C(F)(F)F [Compound 1.007, 3-bromo-4-hydroxy-5-[1-methyl-5-(trifluoromethyl)pyrazol-3-yl]benzonitrile] | 3 (3=41-60%) | 2 (2=21-40%) | 5 (5=81-100%) | 1 (1=0-20%) | 
6 | N#Cc1cc(Br)c(O)c(-c2ccc(C(F)(F)F)c(C(F)(F)F)c2)c1 [Compound 1.008] | 2 (2=21-40%) | 2 (2=21-40%) | 5 (5=81-100%) | 4 (4=61-80%) | 
7 | COc1cc(-c2cc(C#N)cc(Br)c2O)cc(C(F)(F)F)n1 [Compound 1.009] | 2 (2=21-40%) | 2 (2=21-40%) | 4 (4=61-80%) | 2 (2=21-40%) | 
8 | N#Cc1cc(Br)c(O)c(-c2cc(F)cc(C(F)(F)F)c2)c1 [Compound 1.027] | 3 (3=41-60%) | 4 (4=61-80%) | 5 (5=81-100%) | 4 (4=61-80%) | 
9 | N#Cc1cc(F)cc(-c2cc(C#N)cc(Br)c2O)c1 [Compound 1.032] | 3 (3=41-60%) | 4 (4=61-80%) | 5 (5=81-100%) | 4 (4=61-80%) | 
10 | N#Cc1cc(Br)c(O)c(-c2cc(F)cc(Cl)c2)c1 [Compound 1.034] |  | 4 (4=61-80%) | 4 (4=61-80%) |  | 
11 | N#Cc1cc(Br)c(O)c(-c2cnc3c(c2)OC(F)(F)O3)c1 [Compound 1.036] | 3 (3=41-60%) | 2 (2=21-40%) | 5 (5=81-100%) | 4 (4=61-80%) | 3 (3=41-60%)
12 | N#Cc1cc(Br)c(O)c(-c2cncnc2)c1 [Compound 1.044] | 1 (1=0-20%) | 5 (5=81-100%) | 5 (5=81-100%) | 3 (3=41-60%) | 2 (2=21-40%)
13 | N#Cc1cc(-c2csc(C(F)(F)F)n2)c(O)c(C(F)(F)F)c1 [Compound 1.225] |  |  | 5 (5=81-100%) |  | 
